Measurements: patent EP4151203B1, “RAPESEED MEAL EXTRACT, METHOD FOR PREPARING SAME AND USE IN COSMETICS, IN PARTICULAR AS A PRO-PIGMENTING, SLIMMING AGENT” (Lyster, priority 2021, dated 2023)
Where “and” joins values, the source holds several entries; their conditions need not be identical. Equal values may be shown once. Marks after values point to notes of the source that are not given here.

What was measured:
[1] = system: mélanocytes humains normaux; test: Propigmenting activity: melanin production by melanocytes (optical density at 405 nm); assay type: cell-based, humain; details: 250 µM
Method: Les mesures de l'activité propigmentante (augmentation de la production de mélanine) de plusieurs compositions de l'extrait de tourteau de colza présentant des concentrations différentes ont été effectuée par dosage des mélanocytes humains normaux in vitro.
Les compositions de concentrations 0,03% (v/v), 0,1% (v/v), et 0,3% (v/v) ont été préparées par dilution de la solution 50/50 dans le milieu d'incubation.
Les cultures des mélanocytes normaux d'épiderme humain ont été cultivés en culture monocouche jusqu'à confluence. Puis les mélanocytes ont été incubés pendant 72 heures soit en l'absence de l'extrait à tester (contrôle) soit en présence des différentes compositions de l'extrait à tester. Le produit de référence pour l'inhibition de la synthèse de mélanine était une solution d'acide kojique à 250 µM.
Les quantités de mélanine produite par les mélanocytes ont été déterminées par une méthode spectrophotométrique c'est-à-dire une mesure de densité optique à 405 nm effectuée au moyen d'un spectrophotomètre « Genesys 150 » de la société ThermoFisher Scientific.
Le tableau 7 présente la quantité de mélanine (µg) produite par mg de protéines totales dans le lysat cellulaire monocouche.
Le niveau de signification entre le "contrôle" et la « référence » a été évalué à l'aide d'un test t de Student (* : p<0,05). [Tableau 7]

[2] = system: adipocytes humains normaux; test: Lipolytic activity: NEFA released by adipocytes in suspension; assay type: cell-based, humain; details: for NEFA, Moyenne / NEFA: 2 h; for NEFA, Moyenne: mean of 3, p<0.05 vs control; for NEFA: single replicate
Text: Les mesures de l'activité lipolytique de plusieurs compositions d'extrait de tourteau de colza à des concentrations différentes ont été effectuées sur des adipocytes humains normaux de tissu cutané adipeux prélevé sur un adulte de 40 ans. Une suspension des adipocytes humains a été incubée pendant 2 H en présence d'une part des compositions d'extrait à tester et d'autre part du produit de référence (contrôle).
Les compositions de concentrations 0,003% (v/v), 0,01% (v/v), et 0,03% (v/v) d'extrait de tourteau de colza ont été préparées par dilution de la solution 50/50 dans le milieu d'incubation.
À la fin de la période d'incubation, la quantité de NEFA libérés dans le milieu d'incubation a été déterminée à l'aide d'un kit de mesure spectro-colométrique spécifique et sensible.
Le niveau de signification entre le "contrôle" et le "produit de référence" a été évalué à l'aide d'un test t de Student (* : p<0,05).
Le niveau de signification entre le le "contrôle" et chaque "composé testé" a été évalué indépendamment pour chaque composition par une analyse de variance à un facteur (ANOVA à sens unique) suivie d'un test de Holm-Sidak (* : p<0,05).

Row | Structure (SMILES) | mélanine, % du contrôle ([1]; 72 h) | µg mélanine/mg de protéines, Moyenne ([1]; 72 h, mean of 3, p<0.01 vs control) | µg mélanine/mg de protéines ([1]; 72 h, single replicate) | inhibe la production de mélanine ([1]; inhibition vs control, significant) | NEFA, Moyenne ([2]; 10^-3 mol/L) | NEFA ([2]; 10^-3 mol/L) | augmente la lipolyse des adipocytes ([2]; 10^-3 mol/L, increase vs control, p<0.05) | NEFA, Moyenne ([2]; 10^-4 mol/L) | NEFA ([2]; 10^-4 mol/L)
1 | O=c1cc(CO)occ1O [acide kojique] | 52.4% | 35.8** µg mélanine/mg de protéines | 45.1 µg mélanine/mg de protéines and 30.3 µg mélanine/mg de protéines and 32.0 µg mélanine/mg de protéines | 47,6% | – | – | – | – | –
2 | Cn1c(=O)c2c(ncn2C)n(C)c1=O [Caféine, caféine] | – | – | – | – | 47.9* µM | 41.5 µM and 50.3 µM and 51.9 µM | 41.1% | 37.7* µM | 37.1 µM and 38.8 µM and 37.2 µM
